Data from patent publication EP4273147A1, “SUBSTITUTED SPIROLACTAMS, SALTS THEREOF AND THEIR USE AS HERBICIDALLY ACTIVE SUBSTANCES” (Bayer Aktiengesellschaft, priority 2022, dated 2023).

Key:
[1] = system: MATIN; assay: Herbicidal post-emergence action (Table B6); assay type: in vivo, Matricaria inodora; conditions: application rate 1280 g/ha; rated visually after about 3 weeks
How it was run: (§1)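 Greenhouse pot test in sandy loam; weeds sown, treated post-emergence at one-leaf stage 2–3 weeks after sowing. Activity rated visually about 3 weeks later versus untreated controls, 100% = plants dead, 0% = like controls.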

[2] = system: ECHCG; assay: Herbicidal pre-emergence action, section C (Table C6); assay type: in vivo, Echinochloa crus-galli; conditions: application rate 80 g/ha; visual grading after ca. 3 weeks
[3] = system: MATIN; assay: Herbicidal pre-emergence action, section C (Table C8); assay type: in vivo, Matricaria inodora; conditions: application rate 320 g/ha; visual grading after ca. 3 weeks
[4] = system: ALOMY; assay: Herbicidal pre-emergence action (Table A9); assay type: in vivo, Alopecurus myosuroides; conditions: application rate 320 g/ha; visual grading after ca. 3 weeks
How it was run: (§2)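 One monocotyledonous and one dicotyledonous weed species shared each pot. Seeds were sown in sandy loam and covered over with soil.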

[5] = system: VERPE; assay: Herbicidal pre-emergence action (Table A11); assay type: in vivo, Veronica persica; conditions: application rate 320 g/ha; visual grading after ca. 3 weeks
How it was run: as §2

[6] = system: SETVI; assay: Herbicidal pre-emergence action, section C (Table C10); assay type: in vivo, Setaria viridis; conditions: application rate 80 g/ha; visual grading after ca. 3 weeks
[7] = system: ORYZA; assay: Pre-emergence effects on crop plants (Table D3); conditions: crop plant; application rate 80 g/ha; visual grading after ca. 3 weeks
[8] = system: SETVI; assay: Herbicidal post-emergence action, section E (Table E8); assay type: in vivo, Setaria viridis; conditions: application rate 320 g/ha; assessed visually after ca. 3 weeks
Text: (§3) 2 to 3 weeks after sowing, the test plants were sprayed in the single-leaf stage.

[9] = system: VERPE; assay: Herbicidal pre-emergence action, section C (Table C11); assay type: in vivo, Veronica persica; conditions: application rate 320 g/ha; visual grading after ca. 3 weeks
[10] = system: POAAN; assay: Herbicidal post-emergence action (Table B7); assay type: in vivo, Poa annua; conditions: application rate 320 g/ha
How it was run: as §1

[11] = system: ABUTH; assay: Herbicidal pre-emergence action (Table A1); assay type: in vivo, Abutilon theophrasti; conditions: application rate 320 g/ha; visual grading after ca. 3 weeks vs untreated controls (100% = plants have died off, 0% = as control plants)
How it was run: as §2

[12] = system: GLXMA; assay: Post-emergence effects on crop plants (Table F4); assay type: in vivo, Glycine max; conditions: application rate 80 g/ha, crop plant GLXMA
Text: as §3

[13] = system: LOLRI; assay: Herbicidal post-emergence action (Table B5); assay type: in vivo, Lolium rigidum; conditions: application rate 1280 g/ha; rated visually after about 3 weeks
Experimental: (§4) Seeds of mono- and dicotyledonous weed plants were placed in plastic pots in sandy loam soil (doubly sown with in each case one species of mono- or dicotyledonous weed plants per pot), covered with soil and cultivated in a greenhouse under controlled growth conditions. 2 to 3 weeks after sowing, the test plants were treated at the one-leaf stage. […] After the test plants had been kept in the greenhouse under optimum growth conditions for about 3 weeks, the activity of the preparations was rated visually in comparison to untreated controls. For example, 100% activity = the plants have died, 0% activity = like control plants.

[14] = system: ORYZA; assay: Post-emergence effects on crop plants (Table F3); assay type: in vivo, Oryza sativa; conditions: application rate 320 g/ha, crop plant ORYZA
Text: as §3

[15] = system: MATIN; assay: Herbicidal pre-emergence action (Table A4); assay type: in vivo, Matricaria inodora; conditions: application rate 320 g/ha; visual grading after ca. 3 weeks
How it was run: as §2

[16] = system: ECHCG; assay: Herbicidal post-emergence action (Table B3); assay type: in vivo, Echinochloa crus-galli; conditions: application rate 320 g/ha; rated visually after about 3 weeks
How it was run: as §1

[17] = system: BRSNW; assay: Pre-emergence effects on crop plants (Table D5); assay type: in vivo, Brassica napus; conditions: crop plant; application rate 80 g/ha; visual grading after ca. 3 weeks
[18] = system: VERPE; assay: Herbicidal post-emergence action (Table B10); assay type: in vivo, Veronica persica; conditions: application rate 320 g/ha
How it was run: as §1

[19] = system: AMARE; assay: Herbicidal post-emergence action (Table B11); assay type: in vivo, Amaranthus retroflexus; conditions: application rate 1280 g/ha
How it was run: as §1

[20] = system: SETVI; assay: Herbicidal pre-emergence action (Table A5); assay type: in vivo, Setaria viridis; conditions: application rate 320 g/ha; visual grading after ca. 3 weeks
How it was run: as §2

[21] = system: SETVI; assay: Herbicidal post-emergence action (Table B8); assay type: in vivo, Setaria viridis; conditions: application rate 1280 g/ha
How it was run: as §1

[22] = system: ALOMY; assay: Herbicidal post-emergence action (Table B2); assay type: in vivo, Alopecurus myosuroides; conditions: application rate 320 g/ha; rated visually after about 3 weeks
Experimental: as §4

[23] = system: VERPE; assay: Herbicidal post-emergence action, section E (Table E9); assay type: in vivo, Veronica persica; conditions: application rate 320 g/ha; assessed visually after ca. 3 weeks
Text: as §3

[24] = system: KCHSC; assay: Herbicidal pre-emergence action (Table A10); assay type: in vivo, Kochia scoparia; conditions: application rate 1280 g/ha; visual grading after ca. 3 weeks
How it was run: as §2

[25] = system: VIOTR; assay: Herbicidal pre-emergence action, section C (Table C12); assay type: in vivo, Viola tricolor; conditions: application rate 80 g/ha; visual grading after ca. 3 weeks
[26] = system: LOLRI; assay: Herbicidal pre-emergence action, section C (Table C7); assay type: in vivo, Lolium rigidum; conditions: application rate 80 g/ha; visual grading after ca. 3 weeks
[27] = system: VIOTR; assay: Herbicidal post-emergence action, section E (Table E10); assay type: in vivo, Viola tricolor; conditions: application rate 320 g/ha; assessed visually after ca. 3 weeks
Text: as §3

[28] = system: STEME; assay: Herbicidal post-emergence action (Table B9); assay type: in vivo, Stellaria media; conditions: application rate 1280 g/ha
Experimental: as §4

[29] = system: ABUTH; assay: Herbicidal post-emergence action (Table B1); assay type: in vivo, Abutilon theophrasti; conditions: application rate 1280 g/ha; treated at one-leaf stage; rated visually after about 3 weeks vs untreated controls (100% = plants have died, 0% = like control plants)
How it was run: as §1

[30] = system: ECHCG; assay: Herbicidal post-emergence action, section E (Table E5); assay type: in vivo, Echinochloa crus-galli; conditions: application rate 80 g/ha; assessed visually after ca. 3 weeks
Text: as §3

[31] = system: ZEAMX; assay: Post-emergence effects on crop plants (Table F1); assay type: in vivo, Zea mays; conditions: application rate 80 g/ha, crop plant ZEAMX
Text: as §3

[32] = system: POLCO; assay: Herbicidal pre-emergence action, section C (Table C9); assay type: in vivo, Polygonum convolvulus; conditions: application rate 320 g/ha; visual grading after ca. 3 weeks
[33] = system: ABUTH; assay: Herbicidal pre-emergence action, section C (Table C1); assay type: in vivo, Abutilon theophrasti; conditions: application rate 320 g/ha; visual grading after ca. 3 weeks
Text: Seeds of mono- and dicotyledonous weed plants and crop plants were sown, in plastic or organic planting pots, in sandy loam and covered with soil. The compounds according to the invention, formulated in the form of wettable powders (WP) or as emulsifiable concentrates (EC), were applied to the surface of the covering soil as aqueous suspension or emulsion, with the addition of 0.5% of an additive, at an application rate of 600 1 of water/ha (converted). Following treatment, the pots were placed in a greenhouse and kept under optimum growth conditions for the test plants.

[34] = system: LOLRI; assay: Herbicidal pre-emergence action (Table A3); assay type: in vivo, Lolium rigidum; conditions: application rate 320 g/ha; visual grading after ca. 3 weeks
How it was run: as §2

[35] = system: STEME; assay: Herbicidal pre-emergence action (Table A6); assay type: in vivo, Stellaria media; conditions: application rate 320 g/ha; visual grading after ca. 3 weeks
How it was run: as §2

[36] = system: TRZAS; assay: Post-emergence effects on crop plants (Table F2); assay type: in vivo, Triticum aestivum; conditions: application rate 80 g/ha, crop plant TRZAS
Text: as §3

[37] = system: TRZAS; assay: Pre-emergence effects on crop plants (Table D2); assay type: in vivo, Triticum aestivum; conditions: crop plant; application rate 80 g/ha; visual grading after ca. 3 weeks
[38] = system: ALOMY; assay: Herbicidal pre-emergence action, section C (Table C2); assay type: in vivo, Alopecurus myosuroides; conditions: application rate 320 g/ha; visual grading after ca. 3 weeks
[39] = system: ECHCG; assay: Herbicidal pre-emergence action (Table A2); assay type: in vivo, Echinochloa crus-galli; conditions: application rate 320 g/ha; visual grading after ca. 3 weeks
How it was run: as §2

[40] = system: BRSNW; assay: Post-emergence effects on crop plants (Table F5); assay type: in vivo, Brassica napus; conditions: application rate 80 g/ha, crop plant BRSNW
Text: as §3

[41] = system: AMARE; assay: Herbicidal pre-emergence action (Table A8); assay type: in vivo, Amaranthus retroflexus; conditions: application rate 1280 g/ha; visual grading after ca. 3 weeks vs untreated controls (100% = plants have died off, 0% = as control plants)
How it was run: as §2

[42] = system: ALOMY; assay: Herbicidal post-emergence action, section E (Table E2); assay type: in vivo, Alopecurus myosuroides; conditions: application rate 320 g/ha; assessed visually after ca. 3 weeks
Text: as §3

[43] = system: POAAN; assay: Herbicidal pre-emergence action (Table A7); assay type: in vivo, Poa annua; conditions: application rate 320 g/ha; visual grading after ca. 3 weeks
How it was run: as §2

Compound: O=C1N(Cc2ccccc2F)CCCC12CCCN(Cc1ccccc1F)C2=O (racemic) [I-005]
- post-emergence activity against MATIN [1]: 100%
- pre-emergence activity against ECHCG [2]: 100%
- pre-emergence activity against MATIN [3]: 90%
- pre-emergence activity against ALOMY [4]: 90%
- pre-emergence activity against VERPE [5]: 100%
- pre-emergence activity against SETVI [6]: 100%
- pre-emergence activity against ORYZA [7]: 20%
- post-emergence activity against SETVI [8]: 90%
- pre-emergence activity against VERPE [9]: 80%
- post-emergence activity against POAAN [10]: 100%
- pre-emergence activity against ABUTH [11]: 90%
- post-emergence activity against GLXMA [12]: 20%
- post-emergence activity against LOLRI [13]: 90%
- post-emergence activity against ORYZA [14]: 0%
- pre-emergence activity against MATIN [15]: 100%
- post-emergence activity against ECHCG [16]: 100%
- pre-emergence activity against BRSNW [17]: 0%
- post-emergence activity against VERPE [18]: 90%
- post-emergence activity against AMARE [19]: 100%
- pre-emergence activity against SETVI [20]: 100%
- post-emergence activity against SETVI [21]: 100%
- post-emergence activity against ALOMY [22]: 90%
- post-emergence activity against VERPE [23]: 80%
- pre-emergence activity against KCHSC [24]: 90%
- pre-emergence activity against VIOTR [25]: 80%
- pre-emergence activity against LOLRI [26]: 80%
- post-emergence activity against VIOTR [27]: 80%
- post-emergence activity against STEME [28]: 90%
- post-emergence activity against ABUTH [29]: 90%
- post-emergence activity against ECHCG [30]: 80%
- post-emergence activity against ZEAMX [31]: 20%
- pre-emergence activity against POLCO [32]: 80%
- pre-emergence activity against ABUTH [33]: 80%
- pre-emergence activity against LOLRI [34]: 100%
- pre-emergence activity against STEME [35]: 90%
- post-emergence activity against TRZAS [36]: 20%
- pre-emergence activity against TRZAS [37]: 20%
- pre-emergence activity against ALOMY [38]: 100%
- pre-emergence activity against ECHCG [39]: 100%
- post-emergence activity against BRSNW [40]: 20%
- pre-emergence activity against AMARE [41]: 90%
- post-emergence activity against ALOMY [42]: 90%
- pre-emergence activity against POAAN [43]: 100%
